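Step 1: Grow cells in 96-well plates. Step 2: Expose to compound for 48 hours at 5 concentrations. Step 3: Interpolate endpoints linearly; if unreached, use highest concentration. At the TGI there is no net growth.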
Columns and labels:
Test in all cases: inhibition of tumour cell growth, NCI panel, 48 h
[1] = system: HCT-116 colon
[2] = system: HL-60(TB) leukemia
[3] = system: MDA-MB-231 breast
[4] = system: IGROV1 ovarian
[5] = system: RXF 393 renal
[6] = system: SK-OV-3 ovarian
[7] = system: BT-549 breast
[8] = system: NCI-H460 lung
[9] = system: NCI/ADR-RES ovarian
[10] = system: HT29 colon
[11] = system: UACC-257 melanoma

Structure (SMILES) | TGI [1] | TGI [2] | TGI [3] | TGI [4] | TGI [5] | TGI [6] | TGI [7] | TGI [8] | TGI [9] | TGI [10] | TGI [11]
CCCCOC(=O)C(O)Cc1ccoc1 (stereo not drawn) | > 100 µM | > 100 µM | > 100 µM | > 100 µM | > 100 µM | > 100 µM | > 100 µM | > 100 µM | > 100 µM | > 100 µM | 
CC(=O)Nc1ccc2[nH]c(-c3cccc(F)c3)cc(=O)c2c1 |  | 80.7 µM | > 59.6 µM | > 100 µM |  | > 100 µM | > 100 µM | > 100 µM | 21.2 µM | > 100 µM | > 100 µM
COC(=O)c1csc(-c2nc(CCNC(=O)OC(C)(C)C)sc2Br)n1 | > 100 µM | > 100 µM |  | > 100 µM | > 100 µM | > 100 µM | > 100 µM | > 100 µM | > 100 µM | > 100 µM | > 100 µM
Cc1cccc2c1NC(=S)[C@@H]1CCCN1C2=O | > 100 µM |  | > 100 µM | > 100 µM | > 100 µM | > 100 µM | > 100 µM | > 100 µM | > 100 µM | > 100 µM | > 100 µM
CC1C[C@]2(C)C(=O)N(c3ccccc3)C(=N)[C@@H]2N(C)c2ccccc21 (stereo partly drawn) | > 100 µM | > 100 µM | > 100 µM | > 100 µM | > 100 µM |  |  | > 100 µM | > 100 µM | > 100 µM | > 100 µM
COc1ccc(CC2NC(=O)/C=C/CC(C(C)C3OC3c3ccccc3)OC(=O)C(CC(C)C)OC(=O)C(C)CNC2=O)cc1Cl (stereo not drawn) | > 0.1 µM |  | 3.5e-05 µM |  |  | > 0.1 µM |  | 0.00696 µM |  | 0.000108 µM | > 0.1 µM
Nc1nc(Cl)cc(Nc2cc(Cl)cc(Cl)c2)n1 | 33.3 µM |  | 36.3 µM | 35.4 µM | 38.3 µM | 35.8 µM | 45.4 µM | 32.1 µM | 44 µM | 30.6 µM | 32.8 µM
c1cc2c(c(-c3c4ccccc4nc4ccccc34)c1)CC1(CC2)OCCO1 | > 100 µM |  | > 100 µM | > 100 µM | > 100 µM | > 100 µM | > 100 µM | > 100 µM | > 100 µM |  | > 100 µM
Cc1nnc2n1-c1ccccc1C(=S)N1CSCC21 (stereo not drawn) | > 100 µM |  | > 100 µM | > 100 µM | > 100 µM | > 100 µM | > 100 µM | > 100 µM | > 100 µM | > 100 µM | > 100 µM
N/C(=N/n1c(=S)[nH]c2ccccc2c1=O)Nn1c(=S)[nH]c2ccccc2c1=O | 30.4 µM |  | > 100 µM | > 100 µM | > 100 µM | > 100 µM | 55.4 µM | > 100 µM | > 100 µM |  | > 100 µM
O=S1C2=C(Cc3ccccc3)C(Cc3ccccc3)=C1CCc1cccc(c1)CC2 | 21.5 µM | 59.8 µM | 31.3 µM |  | 19.7 µM | 24.3 µM | 27.2 µM | 26.8 µM | 38.7 µM | 26 µM | 27.8 µM
N#CC1(C#N)NC(c2ccsc2)C(C#N)(C#N)NC1c1ccsc1 (stereo not drawn) | > 100 µM | > 100 µM | > 100 µM | > 100 µM |  | > 100 µM | > 100 µM | > 100 µM | > 100 µM | > 100 µM | > 100 µM
CC1(C)Oc2ccc3c(=O)cc(-c4ccc(F)cc4)oc3c2C1C(=O)O (stereo not drawn) | > 100 µM |  | > 100 µM | > 100 µM | > 100 µM | > 100 µM |  |  | > 100 µM | > 100 µM | > 100 µM
COc1ccccc1N1CCN(Cn2c(=O)oc3cccnc32)CC1 | > 100 µM | > 100 µM | > 100 µM | > 100 µM | > 100 µM | > 100 µM |  | > 100 µM | > 100 µM | > 100 µM | > 100 µM
COc1cc2c(cc1OC)CC(N=[N+]=[N-])c1cc(OC)c(OC)cc1/C=C\2 (stereo not drawn) | > 100 µM | > 100 µM | > 100 µM | > 100 µM |  | > 100 µM | 38.8 µM | > 100 µM | > 100 µM | > 100 µM | > 100 µM
S=C1N=C(Cl)C2(NN1)c1ccccc1-c1ccccc12 |  | > 10 µM | > 10 µM | > 10 µM |  | > 10 µM | > 10 µM | > 10 µM | > 10 µM |  | > 10 µM
Cc1cn(Cc2ccccc2CCl)c(=O)[nH]c1=O | 17.9 µM | 14.8 µM |  | 13.9 µM | 23.9 µM | > 100 µM |  | 44.3 µM | 36.2 µM | 79.7 µM | 31.1 µM
CCOC(=O)CCC(NC(=O)c1ccc(N2CCN(c3c(C)nc(N)nc3N)CC2)cc1)C(=O)OCC (stereo not drawn) | > 100 µM |  | > 100 µM | > 100 µM |  | > 100 µM | > 100 µM | 96.9 µM | > 100 µM | > 100 µM | > 55.9 µM
COc1cccc(-c2cc(=O)c3c(C)ccnc3[nH]2)c1 | > 100 µM | 0.0532 µM | > 100 µM | > 100 µM | > 100 µM | > 100 µM | > 100 µM | > 34.4 µM |  | > 100 µM | 
CC(C)=CCC/C(C)=C/CC/C(C)=C/CC/C(C)=C/CC/C(C)=C\CC/C(C)=C/CC/C(C)=C/CC/C(C)=C/Cc1cc(O)ccc1O | 1.87 µM |  | > 55.2 µM | 1.47 µM |  | 15.6 µM | 5.81 µM | 12.5 µM | 1.92 µM | 3.81 µM | 2.91 µM
CCC(=O)O[C@H]1CC[C@H]2[C@@H]3CCC4=C/C(=N/NC(=O)c5cccc6c(=O)c7ccccc7[nH]c56)CC[C@]4(C)[C@H]3CC[C@]12C |  |  | > 25 µM | > 25 µM | > 25 µM | > 25 µM | > 25 µM | > 25 µM | > 25 µM | > 25 µM | > 25 µM
O[C@@H]1C[C@@H]2N[C@@](O)(C[C@@H]2O)[C@H]1O | > 100 µM | > 100 µM | > 100 µM | > 100 µM | > 100 µM | > 100 µM |  | > 100 µM | > 100 µM | > 100 µM | > 100 µM

Source: PubChem BioAssay (NCI)
